These results are taken from US10375956B2, “Herbicidally active 2-(substituted-phenyl)-cyclopentane-1,3-dione compounds and derivatives thereof” (Syngenta Limited, priority 2013, dated 2019).

Common to all, as to assay type: in vivo
Assay [1] concerns Abutilon theophrasti (ABUTH). Nature of the assay: Test 1 glasshouse assay, pre-emergence herbicidal activity. The following applies: 312 h, visual evaluation after 13 days, read-out: Percentage phytotoxicity ABUTH. An outline of the steps: (§1)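 Glasshouse test on soil-sown seed at 24/16° C day/night and 65% humidity. Application was a spray one day post-sowing, vehicle acetone/water (50:50) with 0.5% Tween 20. Readout: visual phytotoxicity percentage at day 13.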

Assay [2] relates to Alopecurus myosuroides (ALOMY). The description is as above. The following applies: 312 h, visual evaluation after 13 days, read-out: Percentage phytotoxicity ALOMY. An outline of the steps:
as §1

In assay [3] the test system is Amaranthus retroflexus (AMARE). The description is as above. The following applies: 312 h, visual evaluation after 13 days, read-out: Percentage phytotoxicity AMARE. Summed up: as §1
Assay [4] relates to Echinochloa crus-galli (ECHCG). Described as above. The following applies: 312 h, visual evaluation after 13 days, read-out: Percentage phytotoxicity ECHCG. Summed up: as §1
The next assay relates to Setaria faberi (SETFA). The assay is described as above. The conditions noted are these: 312 h, visual evaluation after 13 days, read-out: Percentage phytotoxicity SETFA. Summed up:
as §1

Assay [5] deals with Zea mays (ZEAMX, corn/maize). Described as above. The conditions noted are these: 312 h, visual evaluation after 13 days, read-out: Percentage phytotoxicity ZEAMX. Summed up:
as §1

For assay [6], the system named is Abutilon theophrasti (ABUTH). Nature of the assay: Test 1 glasshouse assay, post-emergence herbicidal activity. The conditions noted are these: 312 h, post-emergence (Example 1B Table 1), after 13 days, read-out: Percentage phytotoxicity ABUTH. Summed up:
(§2)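 Plants sprayed post-emergence after 8 days' growth with active ingredient in acetone/water (50:50) plus 0.5% Tween 20; glasshouse at 24/16° C day/night, 14 h light, 65% humidity. Visual percentage phytotoxicity scored 13 days later (100% = total damage, 0% = none).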

In assay [7] the test system is Amaranthus retroflexus (AMARE). Described as above. The following applies: 312 h, post-emergence (Example 1B Table 1), after 13 days, read-out: Percentage phytotoxicity AMARE. Summed up: as §2
The subject of another assay is Lolium perenne (LOLPE). Nature of the assay: Test 2 glasshouse assay (IF50 formulation, X-77), pre-emergence herbicidal activity. The conditions noted are these: 480 h, 250 g/ha, 20DAA, read-out: Percentage phytotoxicity LOLPE. Summed up: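 Plants in soil pots were sprayed 1 day (pre-emergence) or ~12 days (post-emergence) after sowing with IF50 formulation diluted in 0.2% v/v X-77. Cool species were grown at 20/16 °C day/night, 16 h light, 65% humidity. Visual % phytotoxicity was scored at 20DAA (pre) or 15DAA (post).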

Assay [8] concerns Beta vulgaris (BEAVA, sugarbeet). Description: Test 2 glasshouse assay (IF50 formulation, X-77), post-emergence herbicidal activity. The following applies: 360 h, 15 DAA, visual score, read-out: Post-emergence herbicidal activity (percentage phytotoxicity) BEAVA; for plant injury at 30 g/ha: application rate 30 g/ha; for plant injury at 250 g/ha: application rate 250 g/ha; for plant injury at 125 g/ha: application rate 125 g/ha. An outline of the steps: (§3)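 Plants grown ~12 days (range 10-13) in glasshouse (cool species 20/16° C., warm 24/18° C. day/night; 16 h light; 65% humidity), then sprayed post-emergence with IF50 formulation in aqueous 0.2% v/v X-77. Visual percentage phytotoxicity scored 15 days after application (100% = total damage, 0% = none).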

The subject of assay [9] is Brassica napus (BRSNN, rape). The description is as above. The conditions noted are these: 360 h, 15 DAA, visual score, read-out: Post-emergence herbicidal activity (percentage phytotoxicity) BRSNN; for plant injury at 30 g/ha: application rate 30 g/ha; for plant injury at 250 g/ha: application rate 250 g/ha; for plant injury at 125 g/ha: application rate 125 g/ha. An outline of the steps:
as §3

The test system of assay [10] is Glycine max (GLXMA, soybean). The assay is described as above. The following applies: 360 h, 15 DAA, visual score, read-out: Post-emergence herbicidal activity (percentage phytotoxicity) GLXMA; for plant injury at 30 g/ha: application rate 30 g/ha; for plant injury at 250 g/ha: application rate 250 g/ha; for plant injury at 125 g/ha: application rate 125 g/ha. Summed up:
as §3

In assay [11] the test system is Triticum aestivum (TRZAW, winter wheat). The assay is described as above. The following applies: 360 h, 15 DAA, visual score, read-out: Post-emergence herbicidal activity (percentage phytotoxicity) TRZAW; for plant injury at 30 g/ha: application rate 30 g/ha; for plant injury at 250 g/ha: application rate 250 g/ha; for plant injury at 125 g/ha: application rate 125 g/ha. An outline of the steps:
as §3

Regarding `C#CCC1CC(=O)C(c2c(Cl)cc(-c3ccc(Cl)cn3)cc2OC)C1=O` (stereo not drawn) [Compound A10], the pest or weed control at 250 g/ha was 60% in assay [1]; 100% in assay [2]; 100% in [3]; 100% in assay [4]; 100% with Setaria faberi (SETFA); 100% in assay [5]. Also, the pest or weed control at 250 g/ha turned out to be 80% in assay [6], 80% in assay [7] and 70% in the assay on Lolium perenne (LOLPE). Moreover, the pest or weed control at 30 g/ha in assay [6] and in assay [7] was 80% each time. The plant injury at 30 g/ha was found to be 60% in assay [8], 80% in [9], 40% in assay [10] and 70% in assay [11]. The plant injury at 250 g/ha was 80% in assay [8], 80% in assay [9], 70% in [10] and 80% in assay [11].

On to `C#CCC1CC(=O)C(c2c(F)cc(-c3ccc(F)c(F)c3)cc2OC)C1=O` (stereo not drawn) [Compound A22], for which the pest or weed control at 250 g/ha in assay [1] came out at 0%; in assay [2], 80%; in assay [3], 30%; in [4], 100%; with Setaria faberi (SETFA), 90%; in [5], 100%. Besides, the pest or weed control at 250 g/ha in assay [6] is 40%; in assay [7] it was 80%; with Lolium perenne (LOLPE), 20%. The pest or weed control at 30 g/ha worked out at 0% in [6] and 10% in assay [7]. Moreover, the plant injury at 30 g/ha came to 0% in assay [8], 50% in assay [9], 0% in assay [10] and 20% in [11]. The plant injury at 125 g/ha worked out at 0% in assay [8], 70% in [9], 40% in [10] and 70% in [11].

Turning to `C#CCC1CC(=O)C(c2c(C)cc(-c3ncc(Cl)cc3F)cc2C)C1=O` (stereo not drawn) [Compound A3], the pest or weed control at 250 g/ha in assay [1] amounted to 20%; in [2], 100%; in assay [3], 60%; in assay [4], 100%; in the assay with Setaria faberi (SETFA) it was 100%; in assay [5], 100%. For the same molecule, the figures for the pest or weed control at 250 g/ha (in assay [6]; in [7]; in the assay on Lolium perenne (LOLPE)) were 90%, 90% and 80%, respectively. For the same molecule, the pest or weed control at 62.5 g/ha in assay [6] worked out at 80%; in assay [7], 60%. Besides, the plant injury at 30 g/ha came out at 40% in [8], 40% in [9], 20% in assay [10] and 80% in assay [11]. Also, the plant injury at 250 g/ha in assay [8] came out at 70%; in assay [9], 70%; in [10] it was 70%; in assay [11], 90%.

With `C#CCC1CC(=O)C(c2c(C)cc(-c3ccc(Cl)cn3)cc2C)C1=O` (stereo not drawn) [Compound A2], the pest or weed control at 250 g/ha worked out at 50% in assay [1]; 90% in assay [2]; 90% in assay [3]; 100% in assay [4]; 100% in the assay on Setaria faberi (SETFA); 100% in [5]. Also, the pest or weed control at 250 g/ha was found to be 80% in assay [6], 70% in assay [7] and 80% in the assay on Lolium perenne (LOLPE). The pest or weed control at 62.5 g/ha in [6] and in assay [7] was 70% in each case. Also, the plant injury at 30 g/ha was 40% in assay [8], 50% in assay [9], 10% in assay [10] and 70% in assay [11]. Moreover, the plant injury at 250 g/ha in assay [8] amounted to 50%; in [9] it was 80%; in assay [10], 20%; in assay [11], 90%.

With `C#CCC1CC(=O)C(c2c(Cl)cc(-c3ccc(F)cc3)cc2OC)C1=O` (stereo not drawn) [Compound A7], the pest or weed control at 250 g/ha was determined as 0% in assay [1]; 90% in assay [2]; 70% in assay [3]; 100% in assay [4]; 100% with Setaria faberi (SETFA); 100% in [5]. Also, the pest or weed control at 250 g/ha worked out at 80% in assay [6], 80% in assay [7] and 60% in the assay with Lolium perenne (LOLPE). For the same molecule, the pest or weed control at 30 g/ha in assay [6] is 30%; in [7], 20%. Moreover, the plant injury at 30 g/ha in assay [8] was 20%; in assay [9], 60%; in [10], 0%; in assay [11] it was 50%. In addition, the plant injury at 250 g/ha in [8] was 70%; in [9], 80%; in assay [10], 20%; in [11] it was 90%.

On to `C#CCC1CC(=O)C(c2c(Cl)cc(-c3ccc(F)c(F)c3)cc2OC)C1=O` (stereo not drawn) [Compound A13], for which the pest or weed control at 250 g/ha in assay [1] was 80%; in [2] it was 90%; in assay [3], 100%; in [4] it was 100%; with Setaria faberi (SETFA), 100%; in assay [5] it was 100%. Besides, the pest or weed control at 250 g/ha in assay [6] turned out to be 80%; in assay [7], 90%; in the assay on Lolium perenne (LOLPE), 100%. In addition, the pest or weed control at 30 g/ha in [6] was 70%; in assay [7] it was 60%. Further, the plant injury at 30 g/ha stood at 60% in [8], 70% in assay [9], 20% in [10] and 40% in assay [11]. Moreover, the plant injury at 125 g/ha in [8] amounted to 70%; in assay [9] it was 80%; in assay [10] it was 30%; in assay [11], 80%.
